Source: the NIST ThermoML archive (doi:10.1016/j.jct.2008.05.014)

Experiment: xn = mol fraction of the nth substance listed
Conditions: Liquid; for speed of sound: Pulse-echo method

CCCCCCCCCCCC [dodecane] + CCCCCCC
Conditions | mass density [kg/m3] | speed of sound [m/s]
313.11 K, 75990 kPa, x2 = 0.1014 | – | 1575.8
313.11 K, 75990 kPa, x2 = 0.3007 | – | 1560.1
313.11 K, 75990 kPa, x2 = 0.5003 | – | 1544.4
313.11 K, 75990 kPa, x2 = 0.7007 | – | 1524.1
313.11 K, 91180 kPa, x2 = 0.1014 | – | 1630.7
313.11 K, 91180 kPa, x2 = 0.3007 | – | 1616.4
313.11 K, 91180 kPa, x2 = 0.5003 | – | 1601.4
313.11 K, 101320 kPa, x2 = 0.3007 | – | 1651.1
313.11 K, 101320 kPa, x2 = 0.5003 | – | 1637
313.11 K, 101320 kPa, x2 = 0.7007 | – | 1618.5
313.12 K, 101 kPa, x2 = 0.8 | – | 1108.9
313.12 K, 15200 kPa, x2 = 0.5003 | – | 1261.2
313.12 K, 30390 kPa, x2 = 0.8496 | – | 1297.9
313.12 K, 45590 kPa, x2 = 0.3007 | – | 1435.5
313.12 K, 45590 kPa, x2 = 0.8496 | – | 1375.3
313.12 K, 60790 kPa, x2 = 0.3007 | – | 1500.5
313.12 K, 60790 kPa, x2 = 0.8496 | – | 1444.9
313.12 K, 75990 kPa, x2 = 0.8496 | – | 1508.4
313.12 K, 91180 kPa, x2 = 0.8496 | – | 1566.8
313.12 K, 101320 kPa, x2 = 0.8496 | – | 1604
313.13 K, 101 kPa, x2 = 0.2001 | – | 1199.7
313.13 K, 101 kPa, x2 = 0.5002 | – | 1159.9
313.13 K, 15200 kPa, x2 = 0.8496 | – | 1209.3
313.14 K, 101 kPa, x2 = 0.1007 | – | 1210.7
313.15 K, 101 kPa, x2 = 0 | 734.369 | –
313.15 K, 101 kPa, x2 = 0.0991 | 730.129 | –
313.15 K, 101 kPa, x2 = 0.2008 | 725.372 | –
313.15 K, 101 kPa, x2 = 0.2998 | 720.306 | –
313.15 K, 101 kPa, x2 = 0.3996 | 714.763 | –
313.15 K, 101 kPa, x2 = 0.5 | 708.645 | –
313.15 K, 101 kPa, x2 = 0.6 | 701.955 | –
313.15 K, 101 kPa, x2 = 0.7005 | 694.545 | –
313.15 K, 101 kPa, x2 = 0.7995 | 686.378 | –
313.15 K, 101 kPa, x2 = 0.8486 | 682.014 | –
313.15 K, 101 kPa, x2 = 0.8988 | 677.238 | –
313.15 K, 101 kPa, x2 = 0.9498 | 672.083 | –
313.21 K, 15200 kPa, x2 = 0 | – | 1313.4
313.21 K, 30390 kPa, x2 = 0 | – | 1391.1
313.21 K, 45590 kPa, x2 = 0 | – | 1460.8
313.21 K, 60790 kPa, x2 = 0 | – | 1524.1
313.21 K, 75990 kPa, x2 = 0 | – | 1582.5
313.21 K, 91180 kPa, x2 = 0 | – | 1637.3
313.21 K, 101320 kPa, x2 = 0 | – | 1671.3
318.15 K, 101 kPa, x2 = 0 | 730.715 | –
318.15 K, 101 kPa, x2 = 0.0991 | 726.449 | –
318.15 K, 101 kPa, x2 = 0.2008 | 721.654 | –
318.15 K, 101 kPa, x2 = 0.2998 | 716.534 | –
318.15 K, 101 kPa, x2 = 0.3996 | 710.938 | –
318.15 K, 101 kPa, x2 = 0.5 | 704.756 | –
318.15 K, 101 kPa, x2 = 0.6 | 698 | –
318.15 K, 101 kPa, x2 = 0.7005 | 690.511 | –
318.15 K, 101 kPa, x2 = 0.7995 | 682.231 | –
318.15 K, 101 kPa, x2 = 0.8486 | 677.842 | –
318.15 K, 101 kPa, x2 = 0.8988 | 673.004 | –
318.15 K, 101 kPa, x2 = 0.9498 | 667.78 | –
318.17 K, 30390 kPa, x2 = 0.9391 | – | 1264.9
318.17 K, 60790 kPa, x2 = 0.9391 | – | 1416.7
318.17 K, 75990 kPa, x2 = 0.9391 | – | 1481.5
318.17 K, 91180 kPa, x2 = 0.9391 | – | 1540.9
318.17 K, 101320 kPa, x2 = 0.9391 | – | 1578.8
318.18 K, 15200 kPa, x2 = 0.9391 | – | 1172.9
318.18 K, 30390 kPa, x2 = 0.4999 | – | 1327.8
318.18 K, 45590 kPa, x2 = 0.4999 | – | 1402.2
318.18 K, 45590 kPa, x2 = 0.9391 | – | 1345
318.18 K, 60790 kPa, x2 = 0.4999 | – | 1469.5
318.18 K, 75990 kPa, x2 = 0.4999 | – | 1530.5
318.18 K, 75990 kPa, x2 = 0.97 | – | 1479.1
318.18 K, 91180 kPa, x2 = 0.4999 | – | 1587.8
318.18 K, 101320 kPa, x2 = 0.4999 | – | 1623.8
318.19 K, 15200 kPa, x2 = 0.4999 | – | 1243.6
318.19 K, 15200 kPa, x2 = 0.97 | – | 1168.4
318.19 K, 30390 kPa, x2 = 0.97 | – | 1261.1
318.19 K, 45590 kPa, x2 = 0.8496 | – | 1359.9
318.19 K, 45590 kPa, x2 = 0.97 | – | 1341.7
318.19 K, 60790 kPa, x2 = 0.97 | – | 1413.8
318.19 K, 91180 kPa, x2 = 0.97 | – | 1538.7
318.19 K, 101320 kPa, x2 = 0.1014 | – | 1652.2
318.19 K, 101320 kPa, x2 = 0.97 | – | 1576.7
318.2 K, 15200 kPa, x2 = 0.1014 | – | 1286.7
318.2 K, 15200 kPa, x2 = 0.8496 | – | 1191.3
318.2 K, 30390 kPa, x2 = 0.1014 | – | 1366.6
318.2 K, 30390 kPa, x2 = 0.8496 | – | 1281.3
318.2 K, 45590 kPa, x2 = 0.1014 | – | 1437.8
318.2 K, 60790 kPa, x2 = 0.1014 | – | 1502.5
318.2 K, 60790 kPa, x2 = 0.8496 | – | 1430.4
318.2 K, 75990 kPa, x2 = 0.8496 | – | 1494.5
318.2 K, 76190 kPa, x2 = 0.1014 | – | 1562.6
318.2 K, 91180 kPa, x2 = 0.1014 | – | 1617.7
318.2 K, 91180 kPa, x2 = 0.8496 | – | 1553.3
318.2 K, 101320 kPa, x2 = 0.8496 | – | 1590.8
318.28 K, 101320 kPa, x2 = 0.5003 | – | 1623.8
318.29 K, 15200 kPa, x2 = 0 | – | 1296.2
318.29 K, 15200 kPa, x2 = 0.3007 | – | 1265.2
318.29 K, 15200 kPa, x2 = 0.5003 | – | 1243.2
318.29 K, 30390 kPa, x2 = 0 | – | 1375
318.29 K, 30390 kPa, x2 = 0.5003 | – | 1327.5
318.29 K, 45590 kPa, x2 = 0 | – | 1445.5
318.29 K, 45590 kPa, x2 = 0.3007 | – | 1420.2
318.29 K, 45590 kPa, x2 = 0.5003 | – | 1401.9
318.29 K, 60790 kPa, x2 = 0 | – | 1509.7
318.29 K, 60790 kPa, x2 = 0.3007 | – | 1486
318.29 K, 60790 kPa, x2 = 0.5003 | – | 1469.1
318.29 K, 75990 kPa, x2 = 0.3007 | – | 1546.1
318.29 K, 75990 kPa, x2 = 0.5003 | – | 1530.4
318.29 K, 91180 kPa, x2 = 0 | – | 1624.1
318.29 K, 91180 kPa, x2 = 0.3007 | – | 1602.7
318.29 K, 91180 kPa, x2 = 0.5003 | – | 1587.6
318.29 K, 101320 kPa, x2 = 0 | – | 1658.5
318.29 K, 101320 kPa, x2 = 0.3007 | – | 1638.2
318.3 K, 30390 kPa, x2 = 0.3007 | – | 1347.3
318.3 K, 75990 kPa, x2 = 0 | – | 1568.8
318.3 K, 75990 kPa, x2 = 0.7007 | – | 1510
318.3 K, 101320 kPa, x2 = 0.7007 | – | 1605
318.31 K, 15200 kPa, x2 = 0.7007 | – | 1213.9
318.31 K, 30390 kPa, x2 = 0.7007 | – | 1301.3
318.31 K, 45590 kPa, x2 = 0.7007 | – | 1378
318.31 K, 60790 kPa, x2 = 0.7007 | – | 1447.1
318.31 K, 91180 kPa, x2 = 0.7007 | – | 1568.1
318.37 K, 101 kPa, x2 = 0.6 | – | 1123.2
318.38 K, 101 kPa, x2 = 0.7002 | – | 1105.9
318.38 K, 101 kPa, x2 = 0.8995 | – | 1066.3
318.39 K, 101 kPa, x2 = 0 | – | 1200.9
318.39 K, 101 kPa, x2 = 0.3002 | – | 1167
318.39 K, 101 kPa, x2 = 0.3996 | – | 1153.6
318.4 K, 101 kPa, x2 = 0.1007 | – | 1190.5
318.4 K, 101 kPa, x2 = 0.8 | – | 1087
318.41 K, 101 kPa, x2 = 0.2001 | – | 1179.3
318.41 K, 101 kPa, x2 = 0.5002 | – | 1138.9
